Assays:
[1] = biological target: μ opioid receptor (Homo sapiens, UniProt P35372); assay: Inhibition of μ opioid binding to CHO membranes
[2] = tested on: μ, δ and κ opioid receptors; assay: Selectivity across μ, δ and κ opioid binding to CHO membranes; conditions: for Selectivity μ/δ/κ: ratio of Ki values, CHO membranes
[3] = biological target: κ opioid receptor (Homo sapiens, UniProt P41145); assay: Inhibition of κ opioid binding to CHO membranes
[4] = relative to ether based compound 3

Chain of μ opioid receptor (P35372 whole entry, species assumed): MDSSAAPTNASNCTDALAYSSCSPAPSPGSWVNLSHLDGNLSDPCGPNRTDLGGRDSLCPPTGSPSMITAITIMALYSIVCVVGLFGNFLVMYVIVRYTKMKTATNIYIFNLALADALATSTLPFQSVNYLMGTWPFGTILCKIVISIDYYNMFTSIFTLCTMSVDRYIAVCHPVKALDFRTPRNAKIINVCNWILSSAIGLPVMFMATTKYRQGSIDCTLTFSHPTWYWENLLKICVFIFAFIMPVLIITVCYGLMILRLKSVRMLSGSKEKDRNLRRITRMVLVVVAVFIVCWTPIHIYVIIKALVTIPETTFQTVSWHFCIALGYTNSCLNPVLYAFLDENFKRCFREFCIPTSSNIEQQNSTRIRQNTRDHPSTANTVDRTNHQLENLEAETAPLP
Chain of κ opioid receptor (P41145 whole entry): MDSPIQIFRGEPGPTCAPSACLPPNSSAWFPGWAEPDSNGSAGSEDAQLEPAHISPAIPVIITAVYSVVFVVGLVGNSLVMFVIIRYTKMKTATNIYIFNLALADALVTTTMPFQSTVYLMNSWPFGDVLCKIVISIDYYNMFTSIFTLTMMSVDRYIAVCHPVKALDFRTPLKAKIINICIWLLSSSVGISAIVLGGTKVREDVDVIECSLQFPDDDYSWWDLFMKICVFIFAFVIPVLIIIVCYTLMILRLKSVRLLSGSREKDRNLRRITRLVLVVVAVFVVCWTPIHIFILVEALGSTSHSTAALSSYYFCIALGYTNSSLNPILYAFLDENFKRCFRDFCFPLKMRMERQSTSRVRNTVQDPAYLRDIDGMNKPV

OC(COc1ccc2c(c1)[C@@]13CCCC[C@H]1[C@@H](C2)N(CC1CCC1)CC3)COc1ccc2c(c1)[C@@]13CCCC[C@H]1[C@@H](C2)N(CC1CCC1)CC3 [Compound 6]
greater binding affinity at the μ receptor ([1]; relative to des-hydroxy analog 5): 7.5 fold
Selectivity μ/δ/κ [2]: 1/39/1

OC(COc1ccc2c(c1)[C@@]13CCCC[C@H]1[C@@H](C2)N(CC1CCC1)CC3)CC(O)COc1ccc2c(c1)[C@@]13CCCC[C@H]1[C@@H](C2)N(CC1CCC1)CC3 (some centres unmarked) [Compound 7]
Selectivity μ/δ/κ [2]: 7/194/1

OC(CCCCC(O)COc1ccc2c(c1)[C@@]13CCCC[C@H]1[C@@H](C2)N(CC1CCC1)CC3)COc1ccc2c(c1)[C@@]13CCCC[C@H]1[C@@H](C2)N(CC1CCC1)CC3 (some centres unmarked) [Compound 10]
Selectivity μ/δ/κ [2]: 1/23/1

OC(CCCCCCC(O)COc1ccc2c(c1)[C@@]13CCCC[C@H]1[C@@H](C2)N(CC1CCC1)CC3)COc1ccc2c(c1)[C@@]13CCCC[C@H]1[C@@H](C2)N(CC1CCC1)CC3 (stereo partly drawn) [Compound 12, Bis-((−)-N-cyclobutylmethylmorphinan-3-oxy) decane-2,9-diol]
increase in binding affinity at the μ opioid receptor [1, 4]: 27 fold
increase in binding affinity at the κ opioid receptor [3, 4]: 86 fold

c1cc2c(cc1OCC1CO1)[C@@]13CCCC[C@H]1[C@@H](C2)N(CC1CCC1)CC3 (some centres unmarked) [Compound 14]
Selectivity μ/δ/κ [2]: 1/27/5

CCCCCCCCC(O)COc1ccc2c(c1)[C@@]13CCCC[C@H]1[C@@H](C2)N(CC1CCC1)CC3 (some centres unmarked) [Compound 15]
weaker binding affinity at the μ and κ receptors ([2]; relative to bivalent ligand 12): 3–6 fold

CCCCCCCCCC(=O)Oc1ccc2c(c1)[C@@]13CCCC[C@H]1[C@@H](C2)N(CC1CCC1)CC3 [Compound 16]
Ki (nM) ± SE μ ([1]; CHO membranes): sub-nanomolar
Ki (nM) ± SE κ ([3]; CHO membranes): sub-nanomolar
Selectivity μ/δ/κ [2]: 1/100/1

CCCCCCCCCCOc1ccc2c(c1)[C@@]13CCCC[C@H]1[C@@H](C2)N(CC1CCC1)CC3 [Compound 17]
weaker binding affinity at the μ opioid receptor ([1]; relative to 15): 10 fold

OC(COc1ccccc1)COc1ccc2c(c1)[C@@]13CCCC[C@H]1[C@@H](C2)N(CC1CCC1)CC3 (some centres unmarked) [Compound 18]
weaker binding affinity at the μ opioid receptor ([1]; relative to bivalent hydroxy ether 6): 7.5 fold
Selectivity μ/δ/κ [2]: 1/13/3
